Experimental data: patent publication US20100240745A1, “METHOD OF TREATMENT OF INFLAMMATION IN HYPERTENSIVE PATIENTS” (NICOX S.A., priority 2009, published 2010)
Marks after values point to notes of the source that are not given here.

Test: 13-week double-blind, randomized clinical trial: office systolic blood pressure (SBP) in osteoarthritic patients with hypertension treated with renin-angiotensin system blockers
Format: in vivo, human
Details: for Difference in mean changes of SBP vs naproxen 500 mg / Difference in mean changes of SBP vs placebo / mean change in systolic blood pressure (SBP) vs baseline, mean ± SE: 13-week study; for mean change in systolic blood pressure (SBP) vs baseline, mean ± SE: osteoarthritic hypertensive patients on RAS blockers alone or with a diuretic; for blood pressure elevation / BP destabilization (result in words): osteoarthritic hypertensive patients treated with at least a renin-angiotensin system blocking agent
Method: Effects of 4-(nitrooxy)butyl(2S)-2-(6-methoxy-2-naphthyl)propanoate (naproxcinod) and naproxen on systolic blood pressure (SBP).
The effects of two twice daily drug regimens (375 mg bid and 750 mg bid) of 4-(nitrooxy)butyl(2S)-2-(6-methoxy-2-naphthyl)propanoate (naproxcinod) on systolic blood pressure (SBP) vs. naproxen and placebo were studied in a 13-week double-blind, randomized clinical trial involving 207 osteoarthritic patients and hypertension treated with renin-angiotensin system blockers alone or in combination with a diuretic.
Patients were sequentially randomized in a 1:1:1:1 ratio using a validated remote automated system to receive for the 13-week study treatment period one of 4 treatment groups: • naproxcinod 750 mg twice daily, • naproxcinod 375 mg twice daily, • naproxen 500 mg (equimolar dose of naproxcinod 750 mg) twice daily, or • placebo twice daily.
The office SBP was measured in a standardized fashion by mercury column or aneroid device in supine position, at rest, at baseline and 2, 6, and 13 weeks after study treatment initiation. SBP measurements were to be performed 2 to 4 hours post-morning dose.
The comparability of the patients in the 4 treatment groups was determined from the demographic data and baseline BP values.

Compound | Difference in mean changes of SBP vs naproxen 500 mg (375 mg twice daily) [mmHg] | Difference in mean changes of SBP vs placebo (375 mg twice daily) [mmHg] | mean change in systolic blood pressure (SBP) vs baseline, mean ± SE (375 mg twice daily) [mmHg] | Difference in mean changes of SBP vs naproxen 500 mg (750 mg twice daily) [mmHg] | Difference in mean changes of SBP vs placebo (750 mg twice daily) | mean change in systolic blood pressure (SBP) vs baseline, mean ± SE (750 mg twice daily) [mmHg] | blood pressure elevation / BP destabilization (result in words) | blood pressure elevation / BP destabilization (result in words) (listed as 4-(nitrooxy)butyl(2S)-2-(6-methoxy-2-naphthyl)propanoate) | Difference in mean changes of SBP vs placebo (500 mg twice daily) | mean change in systolic blood pressure (SBP) vs baseline, mean ± SE (500 mg twice daily) [mmHg]
COc1ccc2cc([C@H](C)C(=O)OCCCCO[N+](=O)[O-])ccc2c1 [naproxcinod, 4-(nitrooxy)butyl(2S)-2-(6-methoxy-2-naphthyl)propanoate] | −4.2 | 1.9 | −2.7 ± 1.7 | −6.5 | −0.4* mmHg | −5.0 ± 1.7 | less BP destabilization compared to naproxen | does not induce blood pressure elevation | – | –
COc1ccc2cc([C@H](C)C(=O)O)ccc2c1 [naproxen, reference compound] | – | – | – | – | – | – | – | – | 6.1** mmHg | 1.5 ± 1.9
